What follows are compounds tested against T1, PD-1/PD-L1 (Homo sapiens, UniProt Q9NZQ7) (assay: PD-1/PD-L1 Homogenous Time-Resolved Fluorescence (HTRF) binding assay). Conditions: PD-L1-His 10 nM, PD-1-Ig 20 nM; value given as range class; read-out: Range or IC50.
T1 construct: made in house; host or cells: HEK293T
Outline: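 dPBS + 0.1% BSA + 0.05% Tween-20 buffer; Eu-cryptate anti-Ig 1 nM final, APC anti-His 20 nM final; HTRF read. Counter-assays: PD-1-Ig/PD-L2-His 20 & 5 nM, CD80-His/PD-L1-Ig 100 & 10 nM.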

T1 sequence (Q9NZQ7 with tags, fused parts or gaps): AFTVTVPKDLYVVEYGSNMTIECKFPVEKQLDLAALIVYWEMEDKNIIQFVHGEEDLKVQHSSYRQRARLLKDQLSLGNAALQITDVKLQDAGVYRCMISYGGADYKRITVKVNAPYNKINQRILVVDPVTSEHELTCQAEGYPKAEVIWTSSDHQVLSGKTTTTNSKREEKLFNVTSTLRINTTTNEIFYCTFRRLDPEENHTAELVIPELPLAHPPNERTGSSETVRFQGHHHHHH

Row | IC50 [µM] | Compound
1 | 0.00021 to 0.01 | Cc1c(COc2cc(OCc3cncc(C#N)c3)c(CNCCCN(C)C)cc2Cl)cccc1-c1cccc(OCCCN2CCC(O)C2)c1 (stereo in doubt) [Example 3001, (R)-5-((4-chloro-2-(((3-(dimethylamino)propyl)amino)methyl)-5-((3′-(3-(3-hydroxypyrrolidin-1-yl)propoxy)-2-methyl-[1,1′-biphenyl]-3-yl)methoxy)phenoxy)methyl)nicotinonitrile]
2 | 0.00021 to 0.01 | Cc1c(COc2cc(OCc3cncc(C#N)c3)c(CNC(CO)CO)cc2Cl)cccc1-c1cccc(OCCCN2CCC[C@@H](CO)C2)c1C [Example 2292, (R)-5-((4-chloro-2-(((1,3-dihydroxypropan-2-yl)amino)methyl)-5-((3′-(3-(3-(hydroxymethyl)piperidin-1-yl)propoxy)-2,2′-dimethyl-[1,1′-biphenyl]-3-yl)methoxy)phenoxy)methyl)nicotinonitrile]
3 | 0.1 to 2 | Cc1c(COc2cc(OCc3cncc(C#N)c3)c(CN[C@@H](CN)C(=O)O)cc2Cl)cccc1-c1cccc(C(=O)N2CCOCC2)c1C [Example 4059, (S)-3-amino-2-((5-chloro-2-((5-cyanopyridin-3-yl)methoxy)-4-((2,2′-dimethyl-3′-(morpholine-4-carbonyl)-[1,1′-biphenyl]-3-yl)methoxy)benzyl)amino)propanoic Acid]
4 | 0.00021 to 0.01 | Cc1c(COc2cc(OCc3cncc(C#N)c3)c(CN[C@](C)(CO)C(=O)O)cc2Cl)cccc1-c1cccc(OCCCNC(CO)CO)c1Cl [Example 2038, (R)-2-((5-chloro-4-((2′-chloro-3′-(3-((1,3-dihydroxypropan-2-yl)amino)propoxy)-2-methyl-[1,1′-biphenyl]-3-yl)methoxy)-2-((5-cyanopyridin-3-yl)methoxy)benzyl)amino)-3-hydroxy-2-methylpropanoic Acid]
5 | 0.01 to 0.1 | CNC(=O)c1cccc(-c2cccc(COc3cc(OCc4cncc(C#N)c4)c(CN4CCC[C@H]4C(=O)O)cc3Cl)c2C)c1C [Example 4012, (5-chloro-2-((5-cyanopyridin-3-yl)methoxy)-4-((2,2′-dimethyl-3′-(methylcarbamoyl)-[1,1′-biphenyl]-3-yl)methoxy)benzyl)-L-proline]
6 | 0.00021 to 0.01 | Cc1c(COc2cc(OCc3cncc(C#N)c3)c(CN3CCCC[C@H]3C(=O)O)cc2Cl)cccc1-c1cccc(OCCCN2CCC(CO)(C(=O)O)C2)c1C (single isomer, unassigned) [Example 1066]
7 | 0.00021 to 0.01 | Cc1c(OCCCN2CCCCC2)cccc1-c1cccc(COc2cc(OCc3cncc(C#N)c3)c(CN3CCCC[C@H]3C(=O)O)cc2Cl)c1Cl [Example 2306, (S)-1-(5-chloro-4-((2-chloro-2′-methyl-3′-(3-(piperidin-1-yl)propoxy)-[1,1′-biphenyl]-3-yl)methoxy)-2-((5-cyanopyridin-3-yl)methoxy)benzyl)piperidine-2-carboxylic Acid]
8 | 0.00021 to 0.01 | Cc1c(OCCCNC[C@H](O)CO)cccc1-c1cccc(COc2cc(OCc3cncc(C#N)c3)c(CN3CCCC[C@H]3C(=O)O)cc2Cl)c1Cl [Example 2303, (S)-1-(5-chloro-4-((2-chloro-3′-(3-(((S)-2,3-dihydroxypropyl)amino)propoxy)-2′-methyl-[1,1′-biphenyl]-3-yl)methoxy)-2-((5-cyanopyridin-3-yl)methoxy)benzyl)piperidine-2-carboxylic Acid]
9 | 0.1 to 2 | Cc1c(COc2cc(OCc3cncc(C#N)c3)c(CNCCCN(C)C)cc2Cl)cccc1-c1cccc(CNCCCN(C)C)c1 [Example 3062, 5-((4-chloro-2-(((3-(dimethylamino)propyl)amino)methyl)-5-((3′-(((3-(dimethylamino)propyl)amino)methyl)-2-methyl-[1,1′-biphenyl]-3-yl)methoxy)phenoxy)methyl)nicotinonitrile]
10 | 0.00021 to 0.01 | Cc1ccc(OCCCN2CC[C@@H](O)C2)c(C)c1-c1cccc(COc2cc(OCc3cncc(C#N)c3)c(CN[C@@](C)(CO)C(=O)O)cc2Cl)c1C [Example 3028, (2S)-2-((5-chloro-2-((5-cyanopyridin-3-yl)methoxy)-4-((3′-(3-((R)-3-hydroxypyrrolidin-1-yl)propoxy)-2,2′,6′-trimethyl-[1,1′-biphenyl]-3-yl)methoxy)benzyl)amino)-3-hydroxy-2-methylpropanoic Acid]
11 | 0.00021 to 0.01 | COc1cc(OCc2cccc(-c3cccc(OCCCN4CC[C@@H](O)C4)c3C)c2C)c(Cl)cc1CN1CCCC[C@H]1C(=O)O [Example 3036, (2S)-1-(5-chloro-4-((3′-(3-((R)-3-hydroxypyrrolidin-1-yl)propoxy)-2,2′-dimethyl-[1,1′-biphenyl]-3-yl)methoxy)-2-methoxybenzyl)piperidine-2-carboxylic Acid]
12 | 0.00021 to 0.01 | Cc1c(COc2cc(OCc3cncc(C#N)c3)c(CN3CCCC[C@H]3C(=O)O)cc2Cl)cccc1-c1cccc(OCCCN2CCC(F)(F)C2)c1C [Example 4112, (S)-1-(5-chloro-2-((5-cyanopyridin-3-yl)methoxy)-4-((3′-(3-(3,3-difluoropyrrolidin-1-yl)propoxy)-2,2′-dimethyl-[1,1′-biphenyl]-3-yl)methoxy)benzyl)piperidine-2-carboxylic Acid]
13 | 0.00021 to 0.01 | CCOC(=O)C1(CO)CCN(CCCOc2cccc(-c3cccc(COc4cc(OCc5cncc(C#N)c5)c(CN[C@H](CO)C(=O)O)cc4Cl)c3C)c2C)C1 (stereo partly drawn) [Example 1047, (2R)-2-((5-chloro-2-((5-cyanopyridin-3-yl)methoxy)-4-((3′-(3-(3-(ethoxycarbonyl)-3-(hydroxymethyl)pyrrolidin-1-yl)propoxy)-2,2′-dimethyl-[1,1′-biphenyl]-3-yl)methoxy)benzyl)amino)-3-hydroxypropanoic Acid]
14 | 0.00021 to 0.01 | Cc1c(COc2cc(OCc3cncc(C#N)c3)c(CN3CCCC[C@H]3C(=O)O)cc2Cl)cccc1-c1cccc(OCC2(CN3CC[C@@H](O)C3)CC2)c1C [Example 2346, (S)-1-(5-chloro-2-((5-cyanopyridin-3-yl)methoxy)-4-((3′-((1-(((R)-3-hydroxypyrrolidin-1-yl)methyl)cyclopropyl)methoxy)-2,2′-dimethyl-[1,1′-biphenyl]-3-yl)methoxy)benzyl)piperidine-2-carboxylic Acid]
15 | 0.00021 to 0.01 | Cc1c(CCCCN2CC[C@@H](O)C2)cccc1-c1cccc(COc2cc(OCc3cncc(C#N)c3)c(CN3CCNC[C@H]3C(=O)O)cc2Cl)c1C [Example 4070, (S)-1-(5-chloro-2-((5-cyanopyridin-3-yl)methoxy)-4-((3′-(4-((R)-3-hydroxypyrrolidin-1-yl)butyl)-2,2′-dimethyl-[1,1′-biphenyl]-3-yl)methoxy)benzyl)piperazine-2-carboxylic Acid]
16 | 0.00021 to 0.01 | Cc1c(COc2cc(OCc3cncc(C#N)c3)c(CNC(C)(C)C)cc2Cl)cccc1-c1cccc(OCCCN2CC[C@@H](O)C2)c1C [Example 2326, (R)-5-((2-((tert-butylamino)methyl)-4-chloro-5-((3′-(3-(3-hydroxypyrrolidin-1-yl)propoxy)-2,2′-dimethyl-[1,1′-biphenyl]-3-yl)methoxy)phenoxy)methyl)nicotinonitrile]
17 | 0.00021 to 0.01 | Cc1c(OCCCN2CC[C@H](O)C2)cccc1-c1cccc(COc2cc(OCc3cncc(C#N)c3)c(CN3CCCC[C@H]3C(=O)O)cc2Cl)c1Cl [Example 2304, (S)-1-(5-chloro-4-((2-chloro-3′-(3-((S)-3-hydroxypyrrolidin-1-yl)propoxy)-2′-methyl-[1,1′-biphenyl]-3-yl)methoxy)-2-((5-cyanopyridin-3-yl)methoxy)benzyl)piperidine-2-carboxylic Acid]
18 | 0.00021 to 0.01 | Cc1c(COc2cc(OCc3cncc(C#N)c3)c(CN[C@](C)(CO)C(=O)O)cc2Cl)cccc1-c1cccc(OCC2(CN3CC[C@@H](O)C3)CC2)c1C [Example 2341, (R)-2-((5-chloro-2-((5-cyanopyridin-3-yl)methoxy)-4-((3′-((1-(((R)-3-hydroxypyrrolidin-1-yl)methyl)cyclopropyl)methoxy)-2,2′-dimethyl-[1,1′-biphenyl]-3-yl)methoxy)benzyl)amino)-3-hydroxy-2-methylpropanoic Acid]
19 | 2.01 to 10 | Cc1c(COc2cc(OCc3cncc(C#N)c3)c(CN3CCOC[C@H]3C(=O)O)cc2Cl)cccc1-c1cccc(C(=O)N(C)C)c1C [Example 4036, (S)-4-(5-chloro-2-((5-cyanopyridin-3-yl)methoxy)-4-((3′-(dimethylcarbamoyl)-2,2′-dimethyl-[1,1′-biphenyl]-3-yl)methoxy)benzyl)morpholine-3-carboxylic Acid]
20 | 0.00021 to 0.01 | Cc1c(COc2cc(OCc3cncc(C#N)c3)c(CN[C@](C)(CO)C(=O)O)cc2Cl)cccc1-c1cccc(OCCCN2CCC(O)CC2)c1C [Example 1059, (R)-2-((5-chloro-2-((5-cyanopyridin-3-yl)methoxy)-4-((3′-(3-(4-hydroxypiperidin-1-yl)propoxy)-2,2′-dimethyl-[1,1′-biphenyl]-3-yl)methoxy)benzyl)amino)-3-hydroxy-2-methylpropanoic Acid]
21 | 0.01 to 0.1 | Cc1c(COc2cc(OCc3cncc(C#N)c3)c(CNC(CO)CO)cc2Cl)cccc1-c1cccc(C(=O)N2CCOCC2)c1C [Example 4052, 5-((4-chloro-2-(((1,3-dihydroxypropan-2-yl)amino)methyl)-5-((2,2′-dimethyl-3′-(morpholine-4-carbonyl)-[1,1′-biphenyl]-3-yl)methoxy)phenoxy)methyl)nicotinonitrile]
22 | 0.00021 to 0.01 | Cc1c(COc2cc(OCc3cncc(C#N)c3)c(CN3CCCC[C@H]3C(=O)O)cc2Cl)cccc1-c1cccc(OCCCN2CCN(CCO)CC2)c1C [Example 2211, (2S)-1-(5-chloro-2-((5-cyanopyridin-3-yl)methoxy)-4-((3′-(3-(4-(2-hydroxyethyl)piperazin-1-yl)propoxy)-2,2′-dimethylbiphenyl-3-yl)methoxy)benzyl)piperidine-2-carboxylic Acid]
23 | 0.00021 to 0.01 | Cc1c(COc2cc(OCc3cncc(S(C)(=O)=O)c3)c(CNC(C)(CO)C(=O)O)cc2Cl)cccc1-c1cccc(OCCCN2CCC(CO)(C(=O)O)C2)c1Cl (single isomer, unassigned) [Example 1063]
